# Experimental data reported in patent US20100168135A1, “Method of Inducing Cleavage of Amyloid Precursor Protein to Form a Novel Fragment” (priority 2008, published 2010).
# Assays:
# [1] = test system: APP C-terminal fragments in the brains of 3xTg-AD mice; assay: Western blot of brains with antibody CT20, 10-month treatment (Example 7); format: in vivo, mouse; conditions: antibody CT20, 3xTg-AD mice, 5 or 1 or 0.1 mg/kg/day for 10 months; in some samples
# Method: 3xTg-AD mice of approximately 3 months of age were treated for 10 months with ST101. An average dose of 5 or 1 or 0.1 mg/kg/day was administered in drinking water (calculated dose, based on mean water consumption).
# FIGS. 7A-C are Western blots that depict APP C-terminal fragments detected by antibody CT20 in the brains of ST101-treated (S) 3xTg-AD mice, relative to untreated (C) 3xTg-AD mice.
# [2] = test system: acetylcholine (ACh); assay: Nicotine-stimulated release of acetylcholine
# [3] = test system: extracellular ACh and dopamine; assay: Extracellular ACh and dopamine concentrations in cerebral cortex and hippocampus; format: in vivo
# [4] = test system: APP and C-terminal fragments in the brains of 3xTg-AD mice; assay: Western blot of brain extracts with antibody CT20, 2-month treatment (Examples 4 and 5); format: in vivo, mouse; conditions: antibody CT20, brains of 3xTg-AD mice, 5 mg/kg/day for 2 months
# Method: (§1) 3xTg-AD mice of approximately one year of age were treated for 2 months with ST101. An average dose of 5 mg/kg/day was administered in drinking water (calculated dose, based on mean water consumption). Behavioral effects were tested by assessing performance on the Morris Water Maze. Biochemical effects were examined by measuring brain content of Aβ and APP by ELISA and Western Blot.
# To attempt to determine at what part in the Aβ processing/release pathway ST101 may be active, a series of Western blot analyses of brain extracts from the same mice were conducted. These Westerns blots examined intact APP as well as products of its post-translational processing and subsequent degradation.
# FIG. 4 is a Western blot that depicts APP C-terminal fragments detected by antibody CT20 in the brains of ST101-treated (S) 3xTg-AD mice, relative to untreated (C) 3xTg mice-AD.
# FIG. 5 is a Western blot that depicts APP and degradation fragments detected by antibody CT20 in the brains of ST101-treated (S) 3xTg-AD mice, relative to untreated (C) 3xTg-AD mice. “CT20” stands for full length APP species, and “Actin” stands for anti-beta-actin antibody as a protein loading control.
# [5] = test system: Senescence Accelerated Mouse 8 (SAMP8); conditions: cited from earlier work
# [6] = test system: 3xTg-AD mice; assay: Morris water maze in 3xTg-AD mice; format: in vivo, mouse
# Method: as §1
# Behavioral Effects: Performance of 3xTg-AD Mice in the Morris Water Maze (MWM), adapted from Roozendaal et al., Proc. Natl. Acad. Sci. U.S.A. 100: 1328-1333 (2003).
# The MWM tests both spatial memory (i.e. hippocampus dependent) and cued learning (i.e. non-hippocampal) in rodents. The maze is a circular tank filled with opaque water. Mice are placed in the water and must swim to find and escape onto a platform submerged 1.5 cm beneath the surface of the water. The time (in seconds) required to find the platform is recorded. Animals rely on visual cues in the room containing the tank in order to find the platform on successive challenges. Training was conducted daily for seven consecutive days.
# Retention of training was assessed twice, 24 and 72 hours after the final training trial. Animals were subjected to a 60-second free swim in the tank with the platform removed. Parameters measured included (1) latency: time required to reach the former platform location and (2) crosses: the number of times the animal swam across the former platform location.
# [7] = test system: rodent models of learning and memory; conditions: cited from earlier work
# [8] = test system: APP C-terminal fragments in the brains of 3xTg-AD mice; assay: Western blot of brains with antibody 1565-1, 2.5-month treatment (Example 8); format: in vivo, mouse; conditions: antibody 1565-1, 3xTg-AD mice, 5 mg/kg/day for 2.5 months
# Method: 3xTg-AD mice of approximately 12 months of age were treated for 2.5 months with ST101. An average dose of 5 mg/kg/day was administered in drinking water (calculated dose, based on mean water consumption).
# FIG. 8 is a Western blot that depicts C-terminal fragments detected by antibody 1565-1 (Epitomics Inc.) in the brains of ST101-treated (S) 3xTg-AD mice, relative to untreated (C) 3xTg mice-AD.
# [9] = test system: N2a cells; assay: Aβ production by N2a cultured cells, ELISA of tissue culture medium; format: cell-based, murine; conditions: 24 hours treatment, vs control
# Method: N2a is a murine neuroblastoma cell line that is known to produce amyloid peptides Aβ1-40 and Aβ1-42 in amounts measurable by ELISA assays. These forms of Aβ have been correlated with the pathology in AD brain and Aβ1-42 in particular is postulated to have the ability to block α7 nicotinic receptors and to produce direct neurotoxic effects. N2a cells were treated for 24 hours with ST101 added to the tissue culture medium. Tissue culture medium was collected and analyzed by ELISA for the presence of Aβ.
# FIGS. 1A and 1B are bar graphs that depict the effect of the compound ST101 on Aβ production by N2a cells. FIG. 1A is a bar graph that depicts the Aβ concentration in the cell culture medium as a function of ST101 concentration compared to control. FIG. 1B a bar graph that depicts the ratio of Aβ1-42 to Aβ1-40 as a function of ST101 concentration compared to control.
# [10] = 5 mg/kg/day for 2 months, at both 24 and 72 hours after training
smiles,measurement,setting,value
"O=C1N=C2C=CC=CN2C12Cc1ccccc1C2 [ST101, spiro(imidazo[1,2-a]pyridin-2(3H)-one-3,2′-indan)]",major APP degradation intermediate (~50 kDa),[1],disappearance or significant reduction
same,"novel, longer C-terminal fragment of about 17 kDa",[1],appearance
same,nicotine-stimulated release of acetylcholine (ACh),[2],potentiates
same,extracellular ACh concentrations,[3]; cerebral cortex,increases
same,extracellular concentrations of ACh,[3]; hippocampus,increases
same,extracellular concentrations of dopamine,[3]; hippocampus,increases
same,C83 C-terminal APP fragment,[4]; vs untreated,substantial decrease
same,C99 C-terminal APP fragment,[4]; vs untreated,substantial decrease
same,major APP degradation intermediate (~50 kDa),[4]; vs untreated,disappearance or significant reduction
same,"novel, longer C-terminal fragment of about 17 kDa",[4]; vs untreated,appearance
same,full-length APP species (band shifts),[4]; some full-length species,slightly lowered molecular weight
same,accumulation of Aβ-like deposits,[5]; brain tissue,decreased
same,learning and memory functions,[5],improvement
same,crosses during retention testing,[6]; [10],increases in crosses
same,latency during retention testing,[6]; [10],reductions in latency
same,latency on successive days of the training,"[6]; 5 mg/kg/day in drinking water for 2 months, vs controls",greater reductions in latency
same,memory deficits induced by chemical amnesic agents,"[7]; methamphetamine, MK-801, scopolamine",attenuates
same,age-impaired memory,[7]; rodent models,significantly improves
same,longer C-terminal fragment of about 17 kDa,[8],not observed
same,APP C99 fragment,[8]; vs untreated,disappearance or significant reduction
same,Aβ1-40 in cell culture medium,[9],without major effects
same,Aβ1-42 in cell culture medium,[9],significantly reduced
